# Laboratory results taken from publication PMC6006364, “D-Cateslytin: a new antifungal agent for the treatment of oral Candida albicans associated infections” (Scientific Reports, 2018).
# Non-standard residues stand in square brackets, D forms with d. Residues, ends and D or L forms follow the SMILES beside them. No end group written: not given here. rhodamine = not defined here
# Assays:
# [1] = test system: proteases secreted by Candida albicans; assay: Peptide stability in the supernatant of Candida albicans (HPLC); assay type: in vitro ADME; conditions: peptide 186 μg/mL = 100 μM in 100 μL filtered supernatant, 37 °C, 24 h; RP-HPLC C18, 214 nm; repeated three times
# Description: The supernatant of Candida albicans was prepared as follows: a single colony of Candida albicans was resuspended in 5 mL of Sabouraud medium and incubated at 37 °C overnight. The culture was then centrifuged at 10000 g for 1 min and the supernatant was filtered using a 0.22 μm MillexH-GV (Merck Millipore). In order to check sterility, an aliquot of the supernatant was incubated at 37 °C for 48 h. The absence of growth was interpreted as a lack of viable microorganism.
# 100 μL of supernatant was then directly incubated or not with L-Ctl or D-Ctl (186 μg/mL = 100 μM) at 37 °C for 24 h. As a control, each peptide (186 μg/mL = 100 μM) as well as the combination ½ MICD-Ctl + ¼ MICVCZ were incubated in water (100 μL) at 37 °C for 24 h. Samples were then separated using a Dionex HPLC system (Ultimate 3000) on a Nucleosil reverse-phase 300–5C18-column (4.6 × 250 mm; particle size: 5 μm; porosity, 300 Å) (Macherey Nagel). Absorbance was monitored at 214 nm and the solvent system consisted of 0.1% (v/v) TFA in water (solvent A) and 0.09% (v/v) TFA in 70% (v/v) acetonitrile-water (solvent B). Elution was performed at a flow rate of 700 μL/min with a gradient of solvent B as indicated on the chromatograms. Each peak was manually collected.
# [2] = test system: Candida albicans (ATCC 10231); assay: microbe, parasite or virus in culture; assay type: cell-based; conditions: for minimal inhibitory concentration (MIC): ATCC 10231, 24 h
# Description: Candida albicans (ATCC© 10231^TM) was cultured in Sabouraud medium (Sigma-Aldrich) supplemented with tetracycline (10 μg/mL) and cefotaxime (10 μg/mL) at 37 °C for 24 h. Candida albicans (OD600nm = 0,001) were plated in 96-well plates and treated either with different concentrations of the peptides of interest, and/or with different concentrations of voriconazole (VCZ) (Sigma-Aldrich). As a positive control, cells were treated with 10 μg/mL VCZ. After 24 hours incubation, yeast growth was assessed by optical density OD600nm using a spectrophotometer (Multiscan EX). The MIC of the antifungal agents, defined as the lowest concentration of drug able to inhibit 100% of the growth of a pathogen was determined using a modified Gompertz model.
# [3] = test system: Candida albicans (ATCC 10231); assay: Antifungal combination test D-Ctl + voriconazole (FIC index); assay type: cell-based
# Description: Candida albicans (ATCC© 10231^TM) was cultured in Sabouraud medium (Sigma-Aldrich) supplemented with tetracycline (10 μg/mL) and cefotaxime (10 μg/mL) at 37 °C for 24 h. Candida albicans (OD600nm = 0,001) were plated in 96-well plates and treated either with different concentrations of the peptides of interest, and/or with different concentrations of voriconazole (VCZ) (Sigma-Aldrich). As a positive control, cells were treated with 10 μg/mL VCZ. After 24 hours incubation, yeast growth was assessed by optical density OD600nm using a spectrophotometer (Multiscan EX). The efficiency of the combination between D-Ctl and VCZ was determined by the calculation of the Fractional inhibitory concentration index (FICI) according to the following formula: FICI = FICD-Ctl + […] = (MICD-Ctl in combination/MICD-Ctl alone) + ([…] in combination/[…] alone) . According to EUCAST[38], the effect of the combination is synergistic if FICI ≤ 0,5, additive if 0,5 < FICI ≤ 1, indifferent if 1 < FICI < 2 and antagonistic if FICI ≥ 2.
# Candida albicans = assay: Time-lapse video microscopy of Candida albicans with rhodamine-labelled peptides; assay type: cell-based; conditions: for entry into C. albicans: 10 × MIC, 30 min incubation at 37 °C, fluorescence microscopy
# Description: Diluted precultures (1/1000) of Candida albicans were incubated for 1 hour at 37 °C without agitation in glass bottom μ-Dish^35mm,high (Ibidi) previously treated with poly-L-lysine. […] To perform time-lapse video microscopy, the peptides were removed and replaced by Sabouraud medium. Yeasts were then plated at 37 °C, 5% CO2, on a Nikon Eclipse Ti inverted microscope equipped with an Andor Zyla sCMOS camera and a 60X objective. To prevent evaporation, a layer of mineral oil (Sigma) was added on top of the media prior imaging. Images (fluorescence and phase contrast) were captured every 10 min for 20 hours using Nikon NIS-Elements AR software, and processed with ImageJ.
molecule,measurement,setting,value
"CSCC[C@@H](NC(=O)[C@@H](CO)NC(=O)[C@H](N)CCCNC(=N)N)C(=O)N[C@H](CCCNC(=N)N)C(=O)N[C@H](CC(C)C)C(=O)N[C@H](CO)C(=O)N[C@H](Cc1ccccc1)C(=O)N[C@H](CCCNC(=N)N)C(=O)N[C@H](C)C(=O)N[C@H](CCCNC(=N)N)C(=O)NCC(=O)N[C@H](Cc1ccc(O)cc1)C(=O)NCC(=O)N[C@H](Cc1ccccc1)C(=O)N[C@H](CCCNC(=N)N)C(=O)O [D-Ctl, D-Cateslytin] (H-[dR][dS][dM][dR][dL][dS][dF][dR][dA][dR]G[dY]G[dF][dR]-OH)",stability in the supernatant of Candida albicans,[1],still present
same,minimal inhibitory concentration (MIC),[2],5.5 µg/mL
"CSCC[C@H](NC(=O)[C@H](CO)NC(=O)[C@@H](N)CCCNC(=N)N)C(=O)N[C@@H](CCCNC(=N)N)C(=O)N[C@@H](CC(C)C)C(=O)N[C@@H](CO)C(=O)N[C@@H](Cc1ccccc1)C(=O)N[C@@H](CCCNC(=N)N)C(=O)N[C@@H](C)C(=O)N[C@@H](CCCNC(=N)N)C(=O)NCC(=O)N[C@@H](Cc1ccc(O)cc1)C(=O)NCC(=O)N[C@@H](Cc1ccccc1)C(=O)N[C@@H](CCCNC(=N)N)C(=O)O [L-Ctl, Cateslytin] (H-RSMRLSFRARGYGFR-OH)",stability in the supernatant of Candida albicans,[1],the peak of L-Ctl disappeared
same,minimal inhibitory concentration (MIC),[2],7.9 µg/mL
"C[C@@H](c1ncncc1F)[C@](O)(Cn1cncn1)c1ccc(F)cc1F [VCZ, voriconazole]",FIC (fractional inhibitory concentration) of the single agent in the combination,[3]; MIC in combination / MIC alone,0.5
same,fold decrease of VCZ concentration by adding D-Ctl,[3]; with ½ MIC D-Ctl,4
same,concentration of VCZ in the combination (¼ MIC VCZ),"[3]; with ½ MIC D-Ctl, kills 100% of C. albicans",0.018 µg/mL
same,MIC,"[2]; Candida albicans, ATCC10231, lowest concentration inhibiting 100% of C. albicans growth, Sabouraud medium, 24 h, OD600nm, average of at least three experiments, read-out: minimal inhibitory concentration (MIC)",0.07 µg/mL
"Rho-D-Ctl: D-Ctl with a rhodamine moiety on the N-terminal end, used for video microscopy (rhodamine-[dR][dS][dM][dR][dL][dS][dF][dR][dA][dR]G[dY]G[dF][dR]; reading uncertain)",entry into C. albicans,Candida albicans,able to enter
same,effect on colonies totally invaded,"Candida albicans; Rho-D-Ctl 10 × MIC (55 μg/mL), time-lapse video microscopy",systematic arrest of fungal growth and ongoing cellular divisions
"Rho-L-Ctl: L-Ctl with a rhodamine moiety on the N-terminal end, used for video microscopy (rhodamine-RSMRLSFRARGYGFR; reading uncertain)",entry into C. albicans,Candida albicans,able to enter
